Source: ChEMBL document CHEMBL3797052 (Eur J Med Chem, 2016)

tested on: not listed separately; test: Antiproliferative activity against human RXF393 cells assessed as growth inhibition after 48 hrs by sulforhodamine B assay; format: functional; details: RXF 393, 48 h

Compound | GI50 [µM] | TGI [µM]
CNC(=O)c1cc(Oc2ccc3nc(NC(=O)Nc4ccc(Cl)c(Cl)c4)sc3c2)ccn1 | 1.84 | 3.65

same assay, conditions: RXF 393, 48 h, read-out: LC50 (the source's name)

Compound | CC50 [µM]
CNC(=O)c1cc(Oc2ccc3nc(NC(=O)Nc4ccc(Cl)c(Cl)c4)sc3c2)ccn1 | 7.24

tested on: 786-0; test: Antiproliferative activity against human 786-0 cells assessed as growth inhibition after 48 hrs by sulforhodamine B assay; format: functional; details: 786-0, 48 h

Compound | GI50 [µM] | LC50 [µM] | TGI [µM]
CNC(=O)c1cc(Oc2ccc3nc(NC(=O)Nc4ccc(Cl)c(Cl)c4)sc3c2)ccn1 | 2.26 | 21.5 | 5.11

tested on: NCI-H23; test: Antiproliferative activity against human NCI-H23 cells assessed as cell growth at 10^-7 M after 48 hrs by sulforhodamine B assay; format: functional; details: NCI-H23, 48 h, read-out: Activity

Compound | growth at 0.1 µM [%]
CNC(=O)c1cc(Oc2ccc3nc(NC(=O)Nc4ccc(Cl)c(Cl)c4)sc3c2)ccn1 | 92

tested on: not listed separately; test: Antiproliferative activity against human HCT116 cells assessed as cell growth at 10^-7 M after 48 hrs by sulforhodamine B assay; format: functional; details: HCT-116, 48 h, read-out: Activity

Compound | growth at 0.1 µM [%]
CNC(=O)c1cc(Oc2ccc3nc(NC(=O)Nc4ccc(Cl)c(Cl)c4)sc3c2)ccn1 | 97

tested on: SK-MEL-28; test: Antiproliferative activity against human SK-MEL-28 cells assessed as growth inhibition after 48 hrs by sulforhodamine B assay; format: functional; details: SK-MEL-28, 48 h

Compound | GI50 [µM] | TGI [µM]
CNC(=O)c1cc(Oc2ccc3nc(NC(=O)Nc4ccc(Cl)c(Cl)c4)sc3c2)ccn1 | 1.74 | 3.56

same assay, conditions: SK-MEL-28, 48 h, read-out: LC50 (the source's name)

Compound | CC50 [µM]
CNC(=O)c1cc(Oc2ccc3nc(NC(=O)Nc4ccc(Cl)c(Cl)c4)sc3c2)ccn1 | 7.31

tested on: Malme-3M; test: Antiproliferative activity against human MALME-3M cells assessed as cell growth at 10^-7 M after 48 hrs by sulforhodamine B assay; format: functional; details: read-out: Activity

Compound | growth at 0.1 µM [%]
CNC(=O)c1cc(Oc2ccc3nc(NC(=O)Nc4ccc(Cl)c(Cl)c4)sc3c2)ccn1 | 82

tested on: SK-MEL-5; test: Antiproliferative activity against human SK-MEL-5 cells assessed as cell growth at 10^-7 M after 48 hrs by sulforhodamine B assay; format: functional; details: SK-MEL-5, 48 h, read-out: Activity

Compound | growth at 0.1 µM [%]
CNC(=O)c1cc(Oc2ccc3nc(NC(=O)Nc4ccc(Cl)c(Cl)c4)sc3c2)ccn1 | 100

tested on: not listed separately; test: Antiproliferative activity against human IGROV1 cells assessed as cell growth at 10^-7 M after 48 hrs by sulforhodamine B assay; format: functional; details: IGROV-1, 48 h, read-out: Activity

Compound | growth at 0.1 µM [%]
CNC(=O)c1cc(Oc2ccc3nc(NC(=O)Nc4ccc(Cl)c(Cl)c4)sc3c2)ccn1 | 92

tested on: not listed separately; test: Antiproliferative activity against human SF539 cells assessed as growth inhibition after 48 hrs by sulforhodamine B assay; format: functional; details: SF-539, 48 h

Compound | GI50 [µM] | LC50 [µM] | TGI [µM]
CNC(=O)c1cc(Oc2ccc3nc(NC(=O)Nc4ccc(Cl)c(Cl)c4)sc3c2)ccn1 | 2.17 | 11.1 | 4.69

tested on: not listed separately; test: Antiproliferative activity against human SF268 cells assessed as growth inhibition after 48 hrs by sulforhodamine B assay; format: functional; details: SF-268, 48 h

Compound | GI50 [µM] | LC50 (concentration killing 50% of cells) [µM] | TGI [µM]
CNC(=O)c1cc(Oc2ccc3nc(NC(=O)Nc4ccc(Cl)c(Cl)c4)sc3c2)ccn1 | 1.98 | 8.97 | 4.21

tested on: not listed separately; test: Antiproliferative activity against human HOP62 cells assessed as growth inhibition after 48 hrs by sulforhodamine B assay; format: functional; details: HOP-62, 48 h

Compound | GI50 [µM] | LC50 [µM] | TGI [µM]
CNC(=O)c1cc(Oc2ccc3nc(NC(=O)Nc4ccc(Cl)c(Cl)c4)sc3c2)ccn1 | 2.24 | 7.15 | 4

tested on: EKVX; test: Antiproliferative activity against human EKVX cells assessed as growth inhibition after 48 hrs by sulforhodamine B assay; format: functional; details: not given

Compound | GI50 [µM] | TGI [µM]
CNC(=O)c1cc(Oc2ccc3nc(NC(=O)Nc4ccc(Cl)c(Cl)c4)sc3c2)ccn1 | 3.3 | > 100

same assay, conditions: read-out: LC50 (the source's name)

Compound | CC50 [µM]
CNC(=O)c1cc(Oc2ccc3nc(NC(=O)Nc4ccc(Cl)c(Cl)c4)sc3c2)ccn1 | > 100

tested on: not listed separately; test: Antiproliferative activity against human RPMI8226 cells assessed as growth inhibition after 48 hrs by sulforhodamine B assay; format: functional; details: RPMI-8226, 48 h

Compound | GI50 [µM]
CNC(=O)c1cc(Oc2ccc3nc(NC(=O)Nc4ccc(Cl)c(Cl)c4)sc3c2)ccn1 | 3.66
